Source: the NIST ThermoML archive (doi:10.1021/je100381g)
± gives the expanded uncertainty stated by the source.

Conditions: Fluid (supercritical or subcritical phases)

N#N [nitrogen]
Conditions | mass density [kg/m3]
265 K, 967 kPa | 12.355 ± 0.001
265 K, 1937 kPa | 24.865 ± 0.002
265 K, 3929 kPa | 50.84 ± 0.002
265 K, 5996 kPa | 77.972 ± 0.003
265 K, 7985 kPa | 104.063 ± 0.004
265 K, 9835 kPa | 128.039 ± 0.004
265 K, 15014 kPa | 192.346 ± 0.006
265 K, 20022 kPa | 248.359 ± 0.008
265 K, 25019 kPa | 297.183 ± 0.009
265 K, 30006 kPa | 339.165 ± 0.011
265 K, 35119 kPa | 376.198 ± 0.012
265 K, 50041 kPa | 459.104 ± 0.014
265 K, 74887 kPa | 549.76 ± 0.017
265 K, 100559 kPa | 613.291 ± 0.019
293 K, 965 kPa | 11.119 ± 0.001
293 K, 1933 kPa | 22.306 ± 0.002
293 K, 3923 kPa | 45.361 ± 0.002
293 K, 5988 kPa | 69.244 ± 0.003
293 K, 7971 kPa | 91.982 ± 0.003
293 K, 9822 kPa | 112.91 ± 0.004
293 K, 14872 kPa | 167.663 ± 0.006
293 K, 19976 kPa | 218.428 ± 0.007
293 K, 24948 kPa | 262.722 ± 0.008
293 K, 29965 kPa | 302.337 ± 0.01
293 K, 34993 kPa | 337.389 ± 0.011
293 K, 39916 kPa | 367.801 ± 0.011
293 K, 50130 kPa | 421 ± 0.013
293 K, 74957 kPa | 513.932 ± 0.016
293 K, 99903 kPa | 578.472 ± 0.018
293 K, 125585 kPa | 628.863 ± 0.019
293 K, 150976 kPa | 668.88 ± 0.02
298.15 K, 10005 kPa | 112.564 ± 0.004
298.15 K, 30026 kPa | 296.94 ± 0.009
298.15 K, 49844 kPa | 413.221 ± 0.013
298.15 K, 74988 kPa | 507.852 ± 0.016
298.15 K, 100175 kPa | 573.318 ± 0.018
298.15 K, 124825 kPa | 622.069 ± 0.019
298.15 K, 151239 kPa | 664.101 ± 0.02
350 K, 2974 kPa | 28.486 ± 0.002
350 K, 4917 kPa | 46.878 ± 0.002
350 K, 5971 kPa | 56.772 ± 0.002
350 K, 7481 kPa | 70.762 ± 0.003
350 K, 9976 kPa | 93.531 ± 0.003
350 K, 13786 kPa | 127.029 ± 0.004
350 K, 17230 kPa | 155.891 ± 0.005
350 K, 20677 kPa | 183.287 ± 0.006
350 K, 24132 kPa | 209.197 ± 0.007
350 K, 27582 kPa | 233.51 ± 0.008
350 K, 29848 kPa | 248.687 ± 0.008
350 K, 34691 kPa | 279.018 ± 0.009
350 K, 49978 kPa | 358.872 ± 0.011
350 K, 74999 kPa | 452.98 ± 0.014
350 K, 99994 kPa | 520.331 ± 0.016
350 K, 124395 kPa | 571.157 ± 0.018
350 K, 150364 kPa | 614.997 ± 0.019
400 K, 1004 kPa | 8.432 ± 0.001
400 K, 1999 kPa | 16.747 ± 0.002
400 K, 2999 kPa | 25.04 ± 0.002
400 K, 4000 kPa | 33.281 ± 0.002
400 K, 5001 kPa | 41.463 ± 0.002
400 K, 7000 kPa | 57.573 ± 0.002
400 K, 8004 kPa | 65.564 ± 0.003
400 K, 10000 kPa | 81.202 ± 0.003
400 K, 14997 kPa | 118.841 ± 0.004
400 K, 19991 kPa | 154.143 ± 0.005
400 K, 24998 kPa | 187.116 ± 0.006
400 K, 29991 kPa | 217.621 ± 0.007
400 K, 35015 kPa | 246.029 ± 0.008
400 K, 40004 kPa | 272.126 ± 0.009
400 K, 49964 kPa | 318.659 ± 0.01
400 K, 59948 kPa | 358.969 ± 0.011
400 K, 69931 kPa | 394.143 ± 0.012
400 K, 79958 kPa | 425.322 ± 0.013
400 K, 89963 kPa | 453.061 ± 0.014
400 K, 99951 kPa | 477.982 ± 0.015
400 K, 110031 kPa | 500.804 ± 0.015
400 K, 120573 kPa | 522.585 ± 0.016
